Values of other authors in patent US20170071955A1, “METHOD OF STABILIZING WEIGHT AFTER A WEIGHT-LOSS DIET USING PHYTOECDYSONES” (BIOPHYTIS SA, priority 2011, published 2017).

Conditions: mammals on a fattening hypercaloric diet

## CC(C)(O)CC[C@@H](O)[C@](C)(O)[C@H]1CC[C@@]2(O)C3=CC(=O)[C@@H]4C[C@@H](O)[C@@H](O)C[C@]4(C)[C@H]3CC[C@]12C [20-hydroxyecdysone]
  effect on body fat: reduce the increase of body fat
